This is an account of results in article PMC3361532 (2012).

This test concerns the target Abl (Homo sapiens, UniProt P00519). The test is described as follows: in vitro kinase assay with active recombinant Abl. Type of test: biochemical.

pIC50: −log10 of the molar value.

Abl, sequence (P00519 whole entry): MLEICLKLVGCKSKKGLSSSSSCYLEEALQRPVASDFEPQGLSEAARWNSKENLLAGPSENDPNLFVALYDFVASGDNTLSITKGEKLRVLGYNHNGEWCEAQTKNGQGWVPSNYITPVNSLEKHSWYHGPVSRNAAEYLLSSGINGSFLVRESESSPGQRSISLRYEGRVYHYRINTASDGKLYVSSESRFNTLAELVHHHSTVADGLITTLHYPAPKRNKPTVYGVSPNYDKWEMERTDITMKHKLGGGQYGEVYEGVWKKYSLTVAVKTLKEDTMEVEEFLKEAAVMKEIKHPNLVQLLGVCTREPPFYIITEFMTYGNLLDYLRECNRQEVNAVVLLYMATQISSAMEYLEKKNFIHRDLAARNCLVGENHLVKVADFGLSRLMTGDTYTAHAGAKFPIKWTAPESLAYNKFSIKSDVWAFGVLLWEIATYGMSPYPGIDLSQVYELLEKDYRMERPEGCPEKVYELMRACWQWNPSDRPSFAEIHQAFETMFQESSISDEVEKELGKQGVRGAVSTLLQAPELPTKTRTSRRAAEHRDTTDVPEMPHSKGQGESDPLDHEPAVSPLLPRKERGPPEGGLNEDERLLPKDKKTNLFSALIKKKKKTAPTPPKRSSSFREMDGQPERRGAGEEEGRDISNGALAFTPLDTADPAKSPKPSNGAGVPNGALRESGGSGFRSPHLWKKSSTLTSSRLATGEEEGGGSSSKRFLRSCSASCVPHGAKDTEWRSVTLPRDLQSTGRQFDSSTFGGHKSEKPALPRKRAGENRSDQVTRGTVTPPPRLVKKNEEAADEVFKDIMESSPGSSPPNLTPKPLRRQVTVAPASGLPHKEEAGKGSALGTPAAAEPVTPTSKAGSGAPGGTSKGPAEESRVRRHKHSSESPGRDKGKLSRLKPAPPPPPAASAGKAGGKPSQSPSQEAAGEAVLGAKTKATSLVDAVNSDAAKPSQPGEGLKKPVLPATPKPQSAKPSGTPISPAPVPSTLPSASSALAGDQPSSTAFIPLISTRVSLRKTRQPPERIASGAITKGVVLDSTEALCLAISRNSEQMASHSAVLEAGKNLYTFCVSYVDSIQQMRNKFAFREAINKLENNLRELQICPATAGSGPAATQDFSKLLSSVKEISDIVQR

Regarding `O=C1Nc2ccccc2C1=C1Nc2ccccc2C1=NOCC(O)CO` (stereo not shown) [E804], the pIC50 was 5.06.
